Source: US12697313B2, “Methods of treating anemia using formoterol or a pharmaceutically acceptable salt thereof” (Dana-Farber Cancer Institute, Inc., priority 2022, dated 2026)
Entries after “also recorded” stand apart in the source; their conditions may differ.

Legend:
[1] = test system: phenylhydrazine (PHZ)-mediated stress-induced anemic mice; assay: Sublethal PHZ (60 mg/kg)-induced hemolytic anemia, male mice, FF i.p.; type: in vivo
[2] = test system: MDS patient-derived bone marrow cells; assay: Liquid erythroid differentiation culture of MDS patient-derived bone marrow cells (ex vivo); type: cell-based, human; conditions: for erythroid differentiation (CD235a): n=40 MDS patients
Text: (§1) These findings prompted further testing to determine whether administration of FF in MDS patient-derived bone marrow (BM) samples improves erythroid differentiation in an ex vivo setting. To explore this, cells isolated from BM aspirates of de-identified MDS patients were procured. Next, the MDS patient-derived BM cells were placed in liquid erythroid differentiation culture, as previously described (Khajuria et al. (2018) Cell 173: 90-103), with or without FF treatment. […] To further validate this observation, the impact of FF from another vendor (Sigma) was tested on MDS patient-derived cells. […] Next, CD34+ progenitors were FACS-sorted from the MDS patient-derived BM aspirates and seeded in semi-solid methylcellulose culture media with vehicle (DMSO) or FF treatment. […] Therefore, the FDA-approved drug formoterol fumarate could be repurposed to reverse anemia in a range of hematological disorders.
CD34+ primary human hematopoietic stem and progenitor cells (HSPCs) were obtained from Fred-Hutchinson Cancer Research center, Seattle, USA and cultured, as previously described. Formoterol fumarate was purchased from Selleckchem (#S2020) and Sigma (#F9552), dissolved (in DMSO) and stored as per manufacturer's instructions, and used at the final working concentrations as indicated. Frozen BM aspirates from de-identified MDS patients were obtained using our IRB approved protocol (#21-632) from the Pasquarello tissue bank at DFCI.

[3] = test system: erythroid progenitors / bone marrow cells of wild-type mice; assay: Gene expression (bulk RNA sequencing, qPCR) in FF-treated naive wild-type mice; type: in vivo
Text: Data represented as mean±SEM. All comparisons are done with respect to Vehicle (DMSO-treated).
This example describes the effects of formoterol fumarate treatment on expression of genes that have been linked to erythropoiesis including Klf9 (Ren et al., (2018) Yi Chuan. 40(11):998-1006 and Zhang et al., (2017) Blood 130(20):2161-2170), Klf13, Klf11 (Emery (2007) J. Cell. Biochem 100(4):1045-55), Hif1a (Wellmann, et al., (2004) J. Cell Sci. 117:175-94; Feng et al., (2022) Nature 610(7933):783-790; and Chen et al., (2019) N Engl J Med 381:1011-1022), Epas1 (Scortegagna et al. (2003) Blood 102:1634-40), Ddit4 (Yoshikawa (2023) Cancer Biomark. 37(4): 217-225), Cirbp, and Rora (Kim et al. (2008) Arterioscler Throm Vasc Biol 28(10):1796-802 and Chauvet et al., (2004) Biochem. J. 384:79-85). Differential gene expression in naïve wild-type mice was analyzed by bulk RNA sequencing according to an example workflow as depicted in FIG. 86.

[4] = test system: cisplatin-treated CKD mice; assay: FF i.p. in cisplatin-driven chronic kidney disease (CKD) mice; type: in vivo
Description: Comparisons are shown in between cisplatin+FF treated mice as compared to cisplatin+ vehicle treated mice.
FF treatment at a low dose of 0.3 mg/kg 3× weekly (i.p.) alleviates RBC parameters, such as % changes in (FIG. 78A) hematocrit% (HCT%) (FIG. 78B) hemoglobin (Hb) and (FIG. 78C) RBCs in mice with cisplatin-driven CKD. * p<0.05, 2-way ANOVA. n=4-5 mice per group. Comparisons are shown in between cisplatin+FF treated mice as compared to cisplatin+ vehicle treated mice.

primary human HSPCs = assay: Methylcellulose colony-formation assay, primary human HSPCs; type: cell-based; conditions: n=4 healthy donors; vs DMSO; FIG. 4
Description: Given the involvement of β2-AR in erythropoiesis, it was hypothesized that administration of long-acting selective β2-AR agonist FF might promote erythroid differentiation. To address this, primary human HSPCs were treated with varying doses of FF (Selleckchem). […] To ascertain if FF administration plays a role further upstream in the erythroid differentiation pathway, methylcellulose colony-formation assays were performed.
(§2) After genome editing, primary human HSPCs were washed twice with 1× PBS and mixed with semi-solid methylcellulose medium (H4034 StemCell Technologies) by brief vortexing. Cells were plated at a density of 2000 per well in a 6-well plate followed by incubation in a humidified chamber at 37° C. for 14 days. Imaging of the colonies was performed using EVOS M5000 Imaging system® (ThermoFisher Scientific). The colony-forming cells were then collected by triturating the wells using staining buffer and multi-color flow cytometry was performed as previously described (Li et al. (2014) Blood 124: 3636-3645).

naive wild-type mice = assay: FF in naive wild-type mice without PHZ stress (FIG. 62 setup); type: in vivo; conditions: for % change in body weights: FIG. 63
[5] = test system: MDS patient-derived BM progenitors; assay: Semi-solid methylcellulose culture of MDS patient-derived BM progenitors; type: cell-based, human
Text: as §1
as §2, with “The colony-forming cells were then collected by triturating the wells using staining buffer and multi-color flow cytometry was performed as previously described (Li et al. (2014) Blood 124: 3636-3645).” left out

[6] = 0.1/0.3 mg/kg, PHZ 60 mg/kg, FIG. 26

COc1ccc(C[C@@H](C)NC[C@H](O)c2ccc(O)c(NC=O)c2)cc1.O=C(O)/C=C/C(=O)O [FF, (E)-but-2-enedioic acid;N-[2-hydroxy-5-[(1R)-1-hydroxy-2-[[(2R)-1-(4-methoxyphenyl)propan-2-yl]amino]ethyl]phenyl]formamide]
body weights (absolute and % change) ([1]; 0.1/0.3 mg/kg i.p., PHZ 60 mg/kg, male, FIG. 22A): marked revival was similarly observed in body weights; also recorded: increases absolute body weights and % change in body weights | viability of BM cells ([1]; 0.1/0.3 mg/kg, PHZ 60 mg/kg, FIG. 23A): marked increase in viability; also recorded: substantially increases viability | common myeloid progenitors (CMP) and granulocyte monocyte progenitors (GMP) in BM [1, 6]: not affected | megakaryocyte erythroid progenitors (MEP) in BM [1, 6]: specifically boosted megakaryocyte erythroid progenitors (MEP); also recorded: substantially increases MEP | megakaryocytic progenitors (MkP) in BM ([1]; 0.1/0.3 mg/kg, PHZ 60 mg/kg, FIG. 27): no stark differences were observed in megakaryocytic progenitors; also recorded: does not affect megakaryocytic progenitors | mitochondrial mass in PBMCs (MitoTracker staining) ([1]; Day 4 after PHZ treatment, FIG. 21): increases MitoTracker® Staining | mitochondrial biogenesis in BM cells (MitoTracker staining) ([1]; FIG. 23B): elevated mitochondrial biogenesis; also recorded: enhances mitochondrial biogenesis | mitochondrial superoxide production in BM cells (MitoSox staining) ([1]; FIG. 23C): reduced mitochondrial superoxide production; also recorded: significantly reduces mitochondrial superoxide production | LS-K cells in the bone marrow ([1]; FIG. 25): enhances LS-K cells | Pre-CFU-E cells in the BM ([1]; FIG. 28): selectively enhances Pre-CFU-E cells | pro-erythroblasts in the BM ([1]; FIG. 29): selectively enhances pro-erythroblasts | granulocytic myeloid progenitors (GMP) in bone marrow ([1]; FIG. 41, study not stated in legend): does not affect granulocytic myeloid progenitors (GMP) | RBC parameters (Hb, HCT %, RBC numbers) in peripheral blood ([1]; PHZ 60 mg/kg, FIG. 22B): consistently improved RBC parameters; also recorded: significantly enhances and sustains RBC parameters | platelet counts ([1]; PHZ 60 mg/kg, FIG. 22C): no long term impact was observed in the WBC parameters or platelets; also recorded: not statistically significant | WBC and monocyte counts ([1]; day 4 and over 14 days, PHZ 60 mg/kg, FIG. 22C): no long term impact was observed in the WBC parameters or platelets; also recorded: increases WBC and monocyte counts in the peripheral blood after 4 days of daily i.p. injections but does not sustain the impact over 14 days | myelopoiesis/megakaryopoiesis ([2]; 40 MDS patient-derived cells, FIG. 9): does not affect myelopoiesis/megakaryopoiesis | erythroid differentiation (CD235a) ([2]; FF from Selleckchem, FIG. 8A): significantly enhanced erythroid differentiation in BM cells in the majority of MDS patients; also recorded: enhances erythroid differentiation in MDS patient-derived bone marrow cells | erythroid differentiation (CD235a) ([2]; FF from Sigma, FIG. 8B): boosted erythropoiesis in the majority of MDS patients; also recorded: enhances erythroid differentiation in MDS patient-derived bone marrow cells | HIF-1α expression in bone marrow cells ([3]; 0.5mg/kg ip 3× weekly, qPCR, FIG. 88A): enhances HIF-1α expression; also recorded: both significantly increased | VEGFA expression in bone marrow cells ([3]; 0.5mg/kg ip 3× weekly, qPCR, FIG. 88B): enhances; also recorded: both significantly increased | expression of Klf9, Klf13, Klf11, Hif1a, Epas1, Ddit4, Cirbp, Rora in erythroid progenitors from bone marrow ([3]; bulk RNA sequencing, FF-treated vs vehicle-treated, FIG. 87): increased in FF-treated mice | % changes in RBC parameters (HCT%, Hb, RBCs) ([4]; 0.3 mg/kg 3× weekly i.p., FIG. 78): rescues anemia | absolute values of RBC parameters (Hb, HCT %, RBCs) ([4]; 0.3 mg/kg 3× weekly i.p., FIG. 79): elevates RBC parameters | terminal erythroid progenitors in the BM ([4]; 0.3 mg/kg 3× weekly i.p., FIG. 81A): elevates erythroid progenitors | serum BUN and creatinine levels ([4]; FIG. 77): does not affect serum BUN and creatinine levels | WBCs and platelets ([4]; FIG. 80): does not affect WBC parameters | body weights ([4]; i.p., vs cisplatin+vehicle, FIG. 76): significantly rescues (elevates) body weights | BFU-E and CFU-E formation (primary human HSPCs): significantly increased blast-forming unit-erythroid (BFU-E) and colony-forming unit-erythroid (CFU-E) formation; also recorded: enhances blast forming unit-erythroid (BFU-E) and colony forming unit-erythroid (CFU-E) formation | % change in body weights (naive wild-type mice; 0.1/0.3/0.5 mg/kg): increases body weights | viability of BM progenitors (naive wild-type mice; 0.1/0.3/0.5 mg/kg, FIG. 67A): substantially increases | LS-K cells in the BM (naive wild-type mice; 0.1/0.3/0.5 mg/kg, FIG. 67B): substantially increases | MEP and MkP in BM (naive wild-type mice; 0.1/0.3/0.5 mg/kg, FIG. 68A-68B): significantly elevates megakaryocyte erythroid progenitors (MEP) and megakaryocytic progenitors (MkP) | expression of erythroid genes EPOR, ASXL1, NFE2 in sorted erythroid progenitors (naive wild-type mice; 0.1/0.3/0.5 mg/kg, FIG. 70A-70C): substantially increases the expression of erythroid genes | expression of ADRB2 in sorted erythroid progenitors (naive wild-type mice; 0.1/0.3/0.5 mg/kg, FIG. 70D): does not influence the expression of β2-AR-encoding gene ADRB2 | % change in body weights (naive wild-type mice; 0.1 and 0.3 mg/kg groups): did not show statistical significance | HCT% (naive wild-type mice; 0.1 and 0.5 mg/kg groups, FIG. 64C): did not show statistical significance | RBC parameters (RBC numbers, Hb, HCT %) in peripheral blood (naive wild-type mice; FIG. 64): enhances and sustains RBC parameters | WBC numbers and platelet counts (naive wild-type mice; FIG. 65A, 65C): does not influence | monocyte counts in peripheral blood (naive wild-type mice; FIG. 65B): modestly impacts monocyte counts | mitochondrial biogenesis in BMPs (MitoTracker staining) (naive wild-type mice; FIG. 66A): enhances mitochondrial biogenesis | mitochondrial membrane potential in BMPs (TMRE staining) (naive wild-type mice; FIG. 66B): enhances mitochondrial membrane potential | mitochondrial superoxide production in BMPs (MitoSox staining) (naive wild-type mice; FIG. 66C): significantly reduces mitochondrial superoxide production | viability, myelopoiesis (CFU-GM), megakaryopoiesis (CFU-Mk) ([5]; FIG. 11D): produced insignificant effects on the viability, myeloid and megakaryocytic differentiation; also recorded: does not affect viability, myelopoiesis (CFU-GM) or megakaryopoiesis (CFU-Mk) | erythroid progenitors BFU-E and CFU-E ([5]; n=23 MDS patients, vs DMSO, FIG. 11A-11C): significantly boosted both BFU-E and CFU-E formation; also recorded: enhances differentiation of erythroid progenitors in MDS patient-derived bone marrow cells
